What was measured:
nuclease P1 [1] = molecular target: T1, nuclease P1 (Penicillium citrinum, UniProt P24289); assay: Endonuclease (nuclease P1) turnover rate for hydrolysis of modified dinucleoside monophosphates; assay type: biochemical; details: 6 nmol substrate in 100 μl 60 mM sodium acetate buffer pH 5.3 with zinc chloride, 50 ng nuclease P1, 37° C., HPLC analysis
T1 sequence (P24289 1-270): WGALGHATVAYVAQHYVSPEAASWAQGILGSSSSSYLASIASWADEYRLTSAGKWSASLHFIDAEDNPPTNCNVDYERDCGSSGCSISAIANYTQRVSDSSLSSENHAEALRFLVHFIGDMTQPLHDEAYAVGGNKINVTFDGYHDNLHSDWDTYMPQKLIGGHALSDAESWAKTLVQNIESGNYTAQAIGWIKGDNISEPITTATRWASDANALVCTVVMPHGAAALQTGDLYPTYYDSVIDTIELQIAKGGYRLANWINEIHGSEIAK
Method: The endonuclease turnover rate was measured in terms of the number of substrate molecules hydrolyzed per minute per molecule of enzyme. The substrates were modified dinucleoside monophosphates comprising the DNA base modifications illustrated in FIG. 1. The respective unmodified dinucleoside monophosphates were purchased commercially, with the exceptions of d(GpG), d(GpC), d(GpA), and d(GpT) which were prepared using methods previously described (Paul et al., 1988, Int. J. Radiat. Biol. 54:403-415). A solution of each the unmodified dinucleoside monophosphates was X-irradiated, and the corresponding modified dinucleoside monophosphate was isolated by reverse-phase HPLC (see, e.g., Schroder et al., 1995, Int. J. Radiat. Biol. 68:509-23; and Box et al., 1995, In Radiation Damage in DNA, eds. Fuciarelli and Zimbrick, publs. Battelle Press). The one exception to producing modified dinucleoside monophosphates was the production of the DNA base modification thymine glycol. Modified dinucleoside monophosphates bearing the thymine glycol modification were prepared by treating dTpA with osmium tetroxide (see, e.g., Belfi et al., 1986, supra). The DNA base modifications were identified using proton nuclear magnetic resonance spectroscopy (see, e.g., Schroder et al., 1995, Int. J. Radiat. Biol. 68:509-23).
Concentrations of the modified dinucleoside monophosphates were determined spectrophotometrically at 260 nm. The rates of hydrolysis for the modified dinucleoside monophosphates by endonuclease were obtained from measurements of equimolar amounts of the substrate modified dinucleoside monophosphate (6 nmol) in 100 μl of 60 mM sodium acetate buffer (pH 5.3, containing […] zinc chloride). Hydrolysis was initiated by the addition of the endonuclease (50 ng of nuclease P1 in 2 μl buffer) and the reactants were incubated in a 37° C. water bath. At varying times, hydrolysis was terminated by the addition of 15 μl of 1M Tris, and rapid freezing in a liquid nitrogen bath. The products of digestion were analyzed by injecting the digest onto a C-18 reverse phase HPLC column, with elution using a 5%-53% linear gradient of CH3 CN/0.1M ammonium acetate buffer, pH 7.0 at a 1.0 ml/minute flow rate. Moles of protein were calculated from the weight of the material and the known molecular weights for the constituents. The results of the measurement of the endonuclease turnover rates (R, as measured in terms of molecules hydrolyzed per minute per molecule of enzyme) for each of the modified dinucleoside monophosphates tested is illustrated in Table 1.

nuclease P1 [2] = molecular target: T1, nuclease P1; details: endonucleases such as nuclease P1; Maccubbin et al., 1993; cited from earlier work

Row | endonuclease turnover rate R (nuclease P1 [1]) | Structure (SMILES) | hydrolysis by endonuclease of the phosphoester bond 3' to the modified nucleoside (nuclease P1 [2])
1 | no hydrolysis detected | Cc1cn([C@H]2C[C@H](O)[C@@H](COP(=O)(O)O[C@H]3C[C@H](NC=O)O[C@@H]3CO)O2)c(=O)[nH]c1=O [d(T*pT) formamido remnant] | –
2 | no hydrolysis detected | Nc1ncnc2c1ncn2[C@H]1C[C@H](O)[C@@H](COP(=O)(O)O[C@H]2C[C@H](NC=O)O[C@@H]2CO)O1 [d(T*pA) formamido remnant] | do not hydrolyze
3 | no hydrolysis detected | Nc1ccn([C@H]2C[C@H](O)[C@@H](COP(=O)(O)O[C@H]3C[C@H](NC=O)O[C@@H]3CO)O2)c(=O)n1 [d(T*pC) formamido remnant] | –
4 | no hydrolysis detected | Nc1nc2c(ncn2[C@H]2C[C@H](O)[C@@H](COP(=O)(O)O[C@H]3C[C@H](NC=O)O[C@@H]3CO)O2)c(=O)[nH]1 [d(T*pG) formamido remnant] | –
